Assay [1] relates to IL-17-induced GROα secretion from HT-29 cells. As to the kind of experiment: GROα release assay in human colorectal adenocarcinoma epithelial cell (HT-29, ELISA). The settings on record: Homo sapiens, HT-29, 48 h, 10 ng/mL IL-17A, highest concentration 10 μM, read-out: Cellular assay HT29 cell/CXCL1 IC50. The assay is classed as cell-based. In a few lines:
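IC50 values come from four-parameter fits of GROα levels, quantified by ELISA (450 nm, standard curve) in supernatants. Compounds, 4-fold serially diluted from 10 μM, were mixed 15 min with IL-17A (10 ng/mL final) before 48 h incubation with HT-29 cells at 37°C.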

Assay [2] concerns the target human IL-17A / human IL-17RA (Homo sapiens (Human), UniProt Q16552). As to the kind of experiment: Human IL-17A biochemical assay (HTRF, blocking of IL-17A binding to IL-17RA). The settings on record: 0.4 nM IL-17A, 0.3 nM IL-17RA, max compound concentration 10 uM. Summed up:
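HTRF readout (ex337, em620/665 nm ratio) after anti-6His Tb cryptate and anti-human IgG-XL665 detection, 1 h RT. Beforehand, 0.4 nM IL-17A sat with compound 3 h RT, then 0.3 nM IL-17RA 1 h. IC50 by four-parameter logistic fit.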
Background: Time-resolved FRET reads energy transfer from a long-lived donor to a nearby acceptor.

pIC50: −log10 of the molar value.

human IL-17A / human IL-17RA, sequence (Q16552 24-155): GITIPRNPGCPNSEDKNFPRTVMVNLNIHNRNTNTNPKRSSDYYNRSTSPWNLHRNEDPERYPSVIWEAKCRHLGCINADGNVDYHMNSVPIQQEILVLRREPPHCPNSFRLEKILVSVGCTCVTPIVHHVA

In the case of `Cc1nonc1C(=O)N[C@H](C(=O)Nc1ccc2c(c1)CC(C(=O)Nc1cnccc1Cl)(N1C[C@@H](C(C)C)NC1=O)C2)C(C1CC1)C1CC1` (stereo partly drawn) [Example 274, N-((2S)-1-((2-((4-chloropyridin-3-yl)carbamoyl)-2-((R)-4-isopropyl-2-oxoimidazolidin-1-yl)-2,3-dihydro-1H-inden-5-yl)amino)-3,3-dicyclopropyl-1-oxopropan-2-yl)-4-methyl-1,2,5-oxadiazole-3-carboxamide], the pIC50 in assay [1] is 7.17; in assay [2] it was 7.37.

In the case of `Cc1nonc1C(=O)N[C@H](C(=O)Nc1ccc2c(c1)CC(C(=O)Nc1c(F)cccc1Cl)(N1C[C@@H](C(C)C)NC1=O)C2)C(C1CC1)C1CC1` (stereo partly drawn) [Example 275, N-((2S)-1-((2-((2-chloro-6-fluorophenyl)carbamoyl)-2-((R)-4-isopropyl-2-oxoimidazolidin-1-yl)-2,3-dihydro-1H-inden-5-yl)amino)-3,3-dicyclopropyl-1-oxopropan-2-yl)-4-methyl-1,2,5-oxadiazole-3-carboxamide], the pIC50 in assay [1] was 6.87; in assay [2], 7.21.

On to `Cc1nonc1C(=O)N[C@H](C(=O)Nc1ccc2c(c1)OC(C(C)N1C[C@@H](C(F)(F)F)NC1=O)C2)C(C1CC1)C1CC1` (stereo partly drawn) [Example 276, N-((2S)-1,1-dicyclopropyl-3-oxo-3-((2-(1-((S)-2-oxo-4-(trifluoromethyl)imidazolidin-1-yl)ethyl)-2,3-dihydrobenzofuran-6-yl)amino)propan-2-yl)-4-methyl-1,2,5-oxadiazole-3-carboxamide], for which the figures for the pIC50 in assay [1] and in assay [2] were 5.83 and 6.24, respectively.

On to `CC(C1Cc2ccc(NC(=O)[C@@H](NC(=O)c3ccnn3C(C)C)C(C3CC3)C3CC3)cc2O1)N1C[C@@H](C(F)(F)F)NC1=O` (stereo partly drawn) [Example 277, N-((2S)-1,1-dicyclopropyl-3-oxo-3-((2-(1-((S)-2-oxo-4-(trifluoromethyl)imidazolidin-1-yl)ethyl)-2,3-dihydrobenzofuran-6-yl)amino)propan-2-yl)-1-isopropyl-1H-pyrazole-5-carboxamide], for which the figures for the pIC50 in assay [1] and in assay [2] were 5.89 and 6.25, respectively.

Turning to `Cc1nonc1C(=O)N[C@H](C(=O)Nc1ccc2c(c1)CC(C(=O)Nc1cc(F)ccc1Cl)(N1C[C@@H](C(C)C)NC1=O)C2)C(C1CC1)C1CC1` (stereo partly drawn) [Example 278, N-((2S)-1-((2-((2-chloro-5-fluorophenyl)carbamoyl)-2-((R)-4-isopropyl-2-oxoimidazolidin-1-yl)-2,3-dihydro-1H-inden-5-yl)amino)-3,3-dicyclopropyl-1-oxopropan-2-yl)-4-methyl-1,2,5-oxadiazole-3-carboxamide], the pIC50 was 6.91 in assay [1] and 6.48 in assay [2].

Consider `Cc1nonc1C(=O)N[C@H](C(=O)Nc1ccc2c(c1)CC(N1CC(C(F)(F)F)NC1=O)(C(C)(C)O)C2)C(C1CC1)C1CC1` (stereo partly drawn) [Example 279, N-((2S)-1,1-dicyclopropyl-3-((2-(2-hydroxypropan-2-yl)-2-(2-oxo-4-(trifluoromethyl)imidazolidin-1-yl)-2,3-dihydro-1H-inden-5-yl)amino)-3-oxopropan-2-yl)-4-methyl-1,2,5-oxadiazole-3-carboxamide], for which the pIC50 in assay [1] was 7.16; in assay [2], 7.19.

As for `Cc1nonc1C(=O)N[C@H](C(=O)Nc1ccc2c(c1)CC(C(=O)NC1CCOC1)(N1C[C@@H](C(C)C)NC1=O)C2)C(C1CC1)C1CC1` (stereo partly drawn) [Example 280, N-((2S)-1,1-dicyclopropyl-3-((2-((R)-4-isopropyl-2-oxoimidazolidin-1-yl)-2-((tetrahydrofuran-3-yl)carbamoyl)-2,3-dihydro-1H-inden-5-yl)amino)-3-oxopropan-2-yl)-4-methyl-1,2,5-oxadiazole-3-carboxamide], the pIC50 in assay [1] is 7.32; in assay [2], 7.76.

`Cc1nonc1C(=O)N[C@H](C(=O)Nc1ccc2c(c1)CC(C(=O)NC(C1CC1)C1CC1)(N1C[C@@H](C(C)C)NC1=O)C2)C(C1CC1)C1CC1` (stereo partly drawn) [Example 281, N-((2S)-1,1-dicyclopropyl-3-((2-((dicyclopropylmethyl)carbamoyl)-2-((R)-4-isopropyl-2-oxoimidazolidin-1-yl)-2,3-dihydro-1H-inden-5-yl)amino)-3-oxopropan-2-yl)-4-methyl-1,2,5-oxadiazole-3-carboxamide]: the figures for the pIC50 in assay [1] and in assay [2] were 7.17 and 7.78, respectively.

Turning to `Cc1nonc1C(=O)N[C@H](C(=O)Nc1ccc2c(c1)CC(C(=O)NC1CCCC1)(N1C[C@@H](C(C)C)NC1=O)C2)C(C1CC1)C1CC1` (stereo partly drawn) [Example 282, N-((2S)-1-((2-(cyclopentylcarbamoyl)-2-((R)-4-isopropyl-2-oxoimidazolidin-1-yl)-2,3-dihydro-1H-inden-5-yl)amino)-3,3-dicyclopropyl-1-oxopropan-2-yl)-4-methyl-1,2,5-oxadiazole-3-carboxamide], the figures for the pIC50 in assay [1] and in assay [2] were 7.02 and 7.47, respectively.

With `Cc1nonc1C(=O)N[C@H](C(=O)Nc1ccc2c(c1)CC(C(=O)Nc1ccccc1C#N)(N1C[C@@H](C(C)C)NC1=O)C2)C(C1CC1)C1CC1` (stereo partly drawn) [Example 283, N-((2S)-1-((2-((2-cyanophenyl)carbamoyl)-2-((R)-4-isopropyl-2-oxoimidazolidin-1-yl)-2,3-dihydro-1H-inden-5-yl)amino)-3,3-dicyclopropyl-1-oxopropan-2-yl)-4-methyl-1,2,5-oxadiazole-3-carboxamide], the pIC50 in assay [1] is 7.46; in assay [2], 7.49.

Consider `Cc1nonc1C(=O)N[C@H](C(=O)Nc1ccc2c(c1)CC(C(=O)Nc1ccncc1Cl)(N1C[C@@H](C(C)C)NC1=O)C2)C(C1CC1)C1CC1` (stereo partly drawn) [Example 284, N-((2S)-1-((2-((3-chloropyridin-4-yl)carbamoyl)-2-((R)-4-isopropyl-2-oxoimidazolidin-1-yl)-2,3-dihydro-1H-inden-5-yl)amino)-3,3-dicyclopropyl-1-oxopropan-2-yl)-4-methyl-1,2,5-oxadiazole-3-carboxamide], for which the pIC50 in assay [1] is 6.45; in assay [2], 6.57.

For the molecule `Cc1nonc1C(=O)N[C@H](C(=O)Nc1ccc2c(c1)CC(C(=O)Nc1cncs1)(N1C[C@@H](C(C)C)NC1=O)C2)C(C1CC1)C1CC1` (stereo partly drawn) [Example 285, N-((2S)-1,1-dicyclopropyl-3-((2-((R)-4-isopropyl-2-oxoimidazolidin-1-yl)-2-(thiazol-5-ylcarbamoyl)-2,3-dihydro-1H-inden-5-yl)amino)-3-oxopropan-2-yl)-4-methyl-1,2,5-oxadiazole-3-carboxamide], the figures for the pIC50 in assay [1] and in assay [2] were 7.04 and 7.15, respectively.

With `CC(C)[C@@H]1CN(CC2Cc3ccc(NC(=O)[C@@H](NC(=O)c4ccnn4C(C)C)C(C4CC4)C4CC4)cc3N2)C(=O)N1` (stereo partly drawn) [Example 286, N-((2S)-1,1-dicyclopropyl-3-((2-(((R)-4-isopropyl-2-oxoimidazolidin-1-yl)methyl)indolin-6-yl)amino)-3-oxopropan-2-yl)-1-isopropyl-1H-pyrazole-5-carboxamide], the figures for the pIC50 in assay [1] and in assay [2] were 6.37 and 6.84, respectively.

`CC(C)[C@@H]1CN(CC2Cc3ccc(NC(=O)[C@@H](NC(=O)c4ccnn4C(C)C)C(C4CC4)C4CC4)cc3N2C)C(=O)N1` (stereo partly drawn) [Example 287, N-((2S)-1,1-dicyclopropyl-3-((2-(((R)-4-isopropyl-2-oxoimidazolidin-1-yl)methyl)-1-methylindolin-6-yl)amino)-3-oxopropan-2-yl)-1-isopropyl-1H-pyrazole-5-carboxamide]: the pIC50 is 6.65 in assay [1] and 7.21 in assay [2].

Values taken from patent US20250154138A1, “Small Molecule IL-17A Modulators” (BeiGene, Ltd., priority 2022, published 2025).
